Experimental data from patent publication US9624237B2 (priority 2015, dated 2017).

Experiment: Water solubility examination
Type: physicochemical
Settings: 1.44 mg of oridonin in 4 ml water
Description: Water solubility of the present nanoparticle is examined. 1.44 mg of oridonin is dissolved in 4 ml water. […] Large amount of white insoluble white oridonin powder is observed. On the other hand, oridonin functionalized selenium nanoparticle containing 1.68 mg of oridonin is prepared according to the present invention and dissolved in 4 ml water. […] The oridonin functionalized selenium nanoparticle aqueous solution is orangey red in color and no insoluble residue is observed.

Oridonin
water solubility: insoluble in water
